# Reference: patent publication US20260209234A1, “SUBSTITUTED DIHYDROPYRROLO[3,4-D]PYRIMIDINE COMPOUNDS AND THEIR USE IN TREATING MEDICAL CONDITIONS” (Karuna Therapeutics, Inc., priority 2022, published 2026)
# pEC50: −log10 of the molar value.
# Legend:
# hM4 receptors = target: T1, hM4 receptors (Homo sapiens, UniProt P08173); assay: Human M4 PAM pERK assay; format: cell-based; conditions: CHO cells expressing hM4; EC20 of acetylcholine (10 nM final); TR-FRET
# T1 construct: expressed in transfected cells; host or cells: CHO cells
# T1 sequence (P08173 1-479): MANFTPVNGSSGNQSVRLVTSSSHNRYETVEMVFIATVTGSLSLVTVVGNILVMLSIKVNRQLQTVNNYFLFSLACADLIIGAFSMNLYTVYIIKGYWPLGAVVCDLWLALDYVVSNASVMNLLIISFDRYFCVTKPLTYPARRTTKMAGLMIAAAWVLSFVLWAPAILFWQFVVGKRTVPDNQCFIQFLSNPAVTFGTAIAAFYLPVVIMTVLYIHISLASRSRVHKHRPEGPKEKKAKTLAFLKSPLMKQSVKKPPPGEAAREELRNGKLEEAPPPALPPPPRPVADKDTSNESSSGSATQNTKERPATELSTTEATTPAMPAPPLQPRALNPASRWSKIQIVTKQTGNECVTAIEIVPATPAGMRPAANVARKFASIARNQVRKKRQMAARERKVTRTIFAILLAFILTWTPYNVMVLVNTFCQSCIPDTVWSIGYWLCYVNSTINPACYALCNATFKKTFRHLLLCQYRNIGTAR
# human M4 receptor = target: T2, human M4 receptor (Homo sapiens, UniProt P08173); assay: M4 GTPγS PAM assay; format: biochemical; conditions: membranes of CHO-K1 cells stably expressing human M4; EC20 acetylcholine 40 nM; 35S-GTP
# T2 construct: expressed in transfected cells
# T2 sequence (P08173 1-479): T1 sequence (P08173 1-479)
# In short: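 CHO-K1 membranes stably expressing human M4, preincubated with compound and 0.1 μM GDP (final) in 20 mM HEPES, 10 mM MgCl2, 100 mM NaCl, pH 7.4, then EC20 acetylcholine (40 nM final). 35S-GTPγS binding 1 h at room temperature, filtration and scintillation counting.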
# rM4 receptors = target: T3, rM4 receptors (Rattus norvegicus, UniProt P08485); assay: Rat M4 PAM pERK assay; format: cell-based; conditions: CHO cells expressing rM4; EC20 of acetylcholine (10 nM final); TR-FRET
# T3 construct: expressed in transfected cells; host or cells: CHO cells
# T3 sequence (P08485 1-478): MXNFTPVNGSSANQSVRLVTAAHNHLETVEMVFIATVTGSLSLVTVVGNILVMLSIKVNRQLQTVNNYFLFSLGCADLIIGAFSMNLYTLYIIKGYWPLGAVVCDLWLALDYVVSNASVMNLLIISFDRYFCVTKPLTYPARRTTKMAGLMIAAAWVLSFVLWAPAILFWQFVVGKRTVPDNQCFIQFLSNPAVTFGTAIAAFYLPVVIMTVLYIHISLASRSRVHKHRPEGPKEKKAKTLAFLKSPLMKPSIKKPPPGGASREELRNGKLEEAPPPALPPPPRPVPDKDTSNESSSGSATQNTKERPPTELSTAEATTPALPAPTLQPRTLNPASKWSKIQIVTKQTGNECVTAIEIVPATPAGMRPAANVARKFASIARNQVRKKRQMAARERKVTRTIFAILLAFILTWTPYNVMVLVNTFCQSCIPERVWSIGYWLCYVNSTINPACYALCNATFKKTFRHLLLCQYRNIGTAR
Compound,pEC50 (hM4 receptors),pEC50 (human M4 receptor),pEC50 (rM4 receptors)
"COc1nc(C)nc2c1CN(C(=O)CC1CN(c3ncns3)C1)C2 [Compound I-45, 2-(1-(1,2,4-Thiadiazol-5-yl)azetidin-3-yl)-1-(4-methoxy-2-methyl-5,7-dihydro-6H-pyrrolo[3,4-d]pyrimidin-6-yl)ethan-1-one]",6.30 to 7.00,≤ 5.70,5.70 to 6.30
"Cc1nc2c(c(OC(C)C)n1)CN(C(=O)CC1CN(c3ccnc(C(F)(F)F)c3)C1)C2 [Compound I-47, 1-(4-Isopropoxy-2-methyl-5,7-dihydro-6H-pyrrolo[3,4-d]pyrimidin-6-yl)-2-(1-(2-(trifluoromethyl)pyridin-4-yl)azetidin-3-yl)ethan-1-one]",≤ 5.70,≤ 5.70,≤ 5.70
"COc1nc2c(c(OC)n1)CN(C(=O)CC1CN(c3ccnc(C(F)(F)F)c3)C1)C2 [Compound I-64, 1-(2,4-Dimethoxy-5,7-dihydro-6H-pyrrolo[3,4-d]pyrimidin-6-yl)-2-(1-(2-(trifluoromethyl)pyridin-4-yl)azetidin-3-yl)ethan-1-one]",6.30 to 7.00,5.70 to 6.30,≤ 5.70
"COc1nc2c(c(C3CCC3)n1)CN(C(=O)CC1CN(c3ccnc(C(F)(F)F)c3)C1)C2 [Compound I-74, 1-(4-Cyclobutyl-2-methoxy-5,7-dihydro-6H-pyrrolo[3,4-d]pyrimidin-6-yl)-2-(1-(2-(trifluoromethyl)pyridin-4-yl)azetidin-3-yl)ethan-1-one]",≤ 5.70,≤ 5.70,≤ 5.70
"COc1nc2c(c(OC(F)F)n1)CN(C(=O)CC1CN(c3cccnc3)C1)C2 [Compound I-76, 1-(4-(Difluoromethoxy)-2-methoxy-5,7-dihydro-6H-pyrrolo[3,4-d]pyrimidin-6-yl)-2-(1-(pyridin-3-yl)azetidin-3-yl)ethan-1-one]",≤ 5.70,≤ 5.70,≤ 5.70
"COc1nc(C2CC2)nc2c1CN(C(=O)CC1CN(c3ccnc(C(F)(F)F)c3)C1)C2 [Compound I-79, 1-(2-Cyclopropyl-4-methoxy-5,7-dihydro-6H-pyrrolo[3,4-d]pyrimidin-6-yl)-2-(1-(2-(trifluoromethyl)pyridin-4-yl)azetidin-3-yl)ethan-1-one]",5.70 to 6.30,6.30 to 7.00,5.70 to 6.30

# Other lines, results leading:
pEC50 (hM4 receptors),pEC50 (human M4 receptor),pEC50 (rM4 receptors),Compound
5.70 to 6.30,5.70 to 6.30,≤ 5.70,"CCOc1nc(C)nc2c1CN(C(=O)CC1CN(c3ccnc(C(F)(F)F)c3)C1)C2 [Compound I-46, 1-(4-Ethoxy-2-methyl-5,7-dihydro-6H-pyrrolo[3,4-d]pyrimidin-6-yl)-2-(1-(2-(trifluoromethyl)pyridin-4-yl)azetidin-3-yl)ethan-1-one]"
5.70 to 6.30,≤ 5.70,≤ 5.70,"Cc1nc2c(c(OC3CC3)n1)CN(C(=O)CC1CN(c3cccnc3)C1)C2 [Compound I-48, 1-(4-Cyclopropoxy-2-methyl-5,7-dihydro-6H-pyrrolo[3,4-d]pyrimidin-6-yl)-2-(1-(pyridin-3-yl)azetidin-3-yl)ethan-1-one]"
≤ 5.70,≤ 5.70,≤ 5.70,"Cc1nc2c(c(OCC3CC3)n1)CN(C(=O)CC1CN(c3ccnc(C(F)(F)F)c3)C1)C2 [Compound I-50, 1-(4-(Cyclopropylmethoxy)-2-methyl-5,7-dihydro-6H-pyrrolo[3,4-d]pyrimidin-6-yl)-2-(1-(2-(trifluoromethyl)pyridin-4-yl)azetidin-3-yl)ethan-1-one]"
6.30 to 7.00,6.30 to 7.00,≤ 5.70,"COc1nc(C)c2c(n1)CN(C(=O)CC1CN(c3ccnc(C(F)(F)F)c3)C1)C2 [Compound I-75, 1-(2-Methoxy-4-methyl-5,7-dihydro-6H-pyrrolo[3,4-d]pyrimidin-6-yl)-2-(1-(2-(trifluoromethyl)pyridin-4-yl)azetidin-3-yl)ethan-1-one]"
